Values quoted from earlier work in US4410516A, “1-N(αHydroxy-ω-aminoalkanoyl) derivatives of 5,3',4'-trideoxy- or 5,3', 4'-trideoxy-6'-N- methyl- or 5, 3', 4',6"-tetradeoxykannamyci B and production thereof” (Zaidan Hojin Biseibutsu Kagaku Kenkyu Kai, priority 1981, dated 1983).
Entries after “also recorded” stand apart in the source; their conditions may differ.

Key:
[1] = in words, other filings; cited from earlier work
animals, including men = conditions: in words, other filings; cited from earlier work
bacteria = conditions: in words, earlier work / other filings; cited from earlier work

| Compound | oto-toxicity [1] | acute toxicity (animals, including men) | antibacterial activity (bacteria) |
| --- | --- | --- | --- |
| C[C@H]1O[C@H](O[C@@H]2C[C@H](O[C@H]3O[C@H](CN)[C@@H](O)C[C@H]3O)[C@@H](N)C[C@H]2NC(=O)[C@@H](O)CCN)[C@H](O)[C@@H](N)[C@@H]1O [5,3',6"-trideoxyamikacin] | low oto-toxicity | low acute toxicity | useful antibacterial activity as high as that of amikacin |
| NCC[C@H](O)C(=O)N[C@@H]1C[C@H](N)[C@@H](O[C@H]2O[C@H](CN)CC[C@H]2O)[C@H](O)[C@H]1O[C@H]1O[C@H](CO)[C@@H](O)[C@H](N)[C@H]1O [3',4'-dideoxyamikacin] | low oto-toxicity | low acute toxicity | useful antibacterial activity as high as that of amikacin |
| C[C@@H]1C[C@H](N)[C@@H](O)[C@@H](O[C@@H]2[C@@H](O)[C@H](O[C@H]3O[C@H](CN)CC[C@H]3O)[C@@H](N)C[C@H]2NC(=O)[C@@H](O)CCN)O1 [3',4',4",6"-tetradeoxyamikacin] | low oto-toxicity | low acute toxicity | useful antibacterial activity as high as that of amikacin |
| C[C@@H]1C[C@H](N)[C@@H](O)[C@@H](O[C@@H]2[C@@H](O)[C@H](O[C@H]3O[C@H](CN)[C@@H](O)[C@H](O)[C@H]3O)[C@@H](N)C[C@H]2NC(=O)[C@@H](O)CCN)O1 [4",6"-dideoxyamikacin] | low oto-toxicity | low acute toxicity | useful antibacterial activity as high as that of amikacin |
| C[C@H]1O[C@H](O[C@@H]2[C@@H](O)[C@H](O[C@H]3O[C@H](CN)[C@@H](O)[C@H](O)[C@H]3O)[C@@H](N)C[C@H]2NC(=O)[C@@H](O)CCN)[C@H](O)[C@@H](N)[C@@H]1O [6"-deoxyamikacin] | low oto-toxicity | low acute toxicity | useful antibacterial activity as high as that of amikacin |
| NC[C@@H]1CC[C@@H](N)[C@@H](O[C@H]2C[C@@H](O[C@H]3O[C@H](CO)[C@@H](O)[C@H](N)[C@H]3O)[C@H](N)C[C@@H]2N)O1 [5,3',4'-trideoxykanamycin B] |  |  | less active than dibekacin; also recorded: exhibits no useful anti-bacterial activity |
| NC[C@@H]1CC[C@@H](N)[C@@H](O[C@H]2[C@H](O)[C@@H](O[C@H]3O[C@H](CO)[C@@H](O)[C@H](N)[C@H]3O)[C@H](N)C[C@@H]2N)O1 [Dibekacin, 3',4'-dideoxykanamycin B] |  |  | active against the kanamycin-sensitive bacteria and also against various kanamycin-resistant bacteria |
| NCC[C@H](O)C(=O)N[C@@H]1C[C@H](N)[C@@H](O[C@H]2O[C@H](CN)[C@@H](O)C[C@H]2O)[C@H](O)[C@H]1O[C@H]1O[C@H](CO)[C@@H](O)[C@H](N)[C@H]1O [3'-deoxyamikacin] | low oto-toxicity | low acute toxicity | useful antibacterial activity as high as that of amikacin |
| NCC[C@H](O)C(=O)N[C@@H]1C[C@H](N)[C@@H](O[C@H]2O[C@H](CN)[C@@H](O)C[C@H]2O)C[C@H]1O[C@H]1O[C@H](CO)[C@@H](O)[C@H](N)[C@H]1O [5,3'-dideoxyamikacin] | low oto-toxicity | low acute toxicity | useful antibacterial activity as high as that of amikacin |
| C[C@H]1O[C@H](O[C@@H]2[C@@H](O)[C@H](O[C@H]3O[C@H](CN)[C@@H](O)C[C@H]3O)[C@@H](N)C[C@H]2NC(=O)[C@@H](O)CCN)[C@H](O)[C@@H](N)[C@@H]1O [3',6"-dideoxyamikacin] | low oto-toxicity | low acute toxicity | useful antibacterial activity as high as that of amikacin |
| C[C@H]1O[C@H](O[C@@H]2[C@@H](O)[C@H](O[C@H]3O[C@H](CN)CC[C@H]3O)[C@@H](N)C[C@H]2NC(=O)[C@@H](O)CCN)[C@H](O)[C@@H](N)[C@@H]1O [3',4',6"-trideoxyamikacin] | low oto-toxicity | low acute toxicity | useful antibacterial activity as high as that of amikacin |
